We go through 23 compounds from PubChem BioAssay (NCI).

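48-hour exposure; five concentrations; linearly interpolated endpoints. TGI denotes the concentration required for complete inhibition of growth.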 A value given as a limit tells only on which side of the number the result lay.

Common to all, as to experiment: NCI tumour cell line growth inhibition, 48 h
Assay [1] concerns SF-268 CNS.
Assay [2] relates to SW-620 colon.
Assay [3] deals with RPMI-8226 leukemia.
The test system of assay [4] is K-562 leukemia.
Assay [5] has as its system A549 NSCLC.
Assay [6] has as its system UO-31 renal.
The subject of assay [7] is HOP-62 NSCLC.
Assay [8] deals with CAKI-1 renal.
Assay [9] concerns OVCAR-4 ovarian.
For assay [10], the system named is M14 melanoma.

Regarding `C#CCn1c(=O)c(C#N)c(O)c2cc3ccccc3nc21`, the TGI in [1] was above 31.6 µM; in assay [2] it was above 100 µM; in assay [3] it was above 100 µM; in assay [4] it was above 100 µM; in [5] it was above 100 µM; in assay [6], above 100 µM. The TGI in assay [7] and in [8] was above 100 µM in each case.
Regarding `c1ccc2c(Cc3nnc4sc(SSc5nn6c(Cc7c[nH]c8ccccc78)nnc6s5)nn34)c[nH]c2c1`, the TGI in [1] was 67.2 µM; in assay [2] it was 37.6 µM; in assay [4], 46.5 µM; in [9], above 100 µM; in assay [5], 88.4 µM; in [6], 46.7 µM. Besides, the TGI was determined as 30.2 µM in assay [7], 37.2 µM in [10] and 62.6 µM in assay [8].
Consider `CCCCOCn1c(=O)[nH]c(=O)c2cc(Br)ccc21`, for which the TGI was above 100 µM in [2]; above 100 µM in assay [4]; above 100 µM in assay [9]; above 100 µM in assay [5]; 52.6 µM in [6]; above 100 µM in [10]. In assay [8], this compound registered a TGI of 46.9 µM.
As for `NNC(=S)N1CCN(C(=S)NN)CC1`, the TGI in [1], in assay [2], in assay [3], in [9], in [5] and in [6] was above 100 µM throughout. Also, the TGI in assay [7], in assay [10] and in [8] was above 100 µM throughout.
`O=C1C(Br)=C(c2ccccc2)S(=O)c2ccccc21` (configuration not stated): the TGI in assay [1] was found to be 36.5 µM; in assay [2] it was 38.4 µM; in assay [4], 11.8 µM; in assay [9], 5.86 µM; in assay [5] it was 62 µM; in assay [6] it was 27.2 µM. The TGI stood at 5.68 µM in assay [7], 27 µM in [10] and 21.8 µM in assay [8].
Take `COc1c2cc(C(C)(C)C)cc1Cc1cccc(c1O)Cc1cc(C(C)(C)C)cc(c1OC)Cc1cccc(c1O)Cc1cc(C(C)(C)C)cc(c1OC)Cc1cccc(c1O)C2`: the TGI in assay [1], in [2], in assay [3], in assay [4], in assay [5] and in [6] was above 100 µM in each case. Also, the TGI in assay [7], in assay [10] and in assay [8] was above 100 µM in each case.
In the case of `CC(=O)O[C@H]1C(=O)[C@@]2(C)[C@H]([C@H](OC(=O)c3ccccc3)[C@]3(O)C[C@H](OC(=O)[C@H](O)[C@@H](NC(=O)CC(C)(C)C)c4ccccc4)C(C)=C1C3(C)C)C1(OC(C)=O)CO[C@@H]1C[C@@H]2O` (some centres not stated), the TGI in [1] was above 6.19 µM; in assay [2], above 10 µM; in assay [4], above 10 µM; in assay [9], above 10 µM; in assay [5], above 10 µM; in assay [6] it was above 10 µM. For the same compound, the TGI in assay [10] and in assay [8] was above 10 µM in each case.
On to `C=CC[C@@]1(C(=O)OC)[C@H](Sc2ccccc2)C1(C)C`, for which the TGI in assay [1] was above 100 µM; in assay [2], above 100 µM; in assay [3] it was 26.4 µM; in assay [9] it was above 100 µM; in [5], above 100 µM; in assay [6], above 100 µM. Moreover, the TGI in assay [7], in [10] and in assay [8] was above 100 µM each time.
`O=C(N[C@H]1c2ccsc2/C(=N/O)[C@H]1O)C(F)(F)F`: the TGI in assay [1], in [2], in [4], in assay [5], in assay [6] and in [7] was above 100 µM in each case. For the same compound, the TGI in [10] and in assay [8] was above 100 µM in each case.
For the compound `CCc1ccc2c(c1)CC1(C2)Cc2cc3c(cc2C1)C(=O)CC3` (configuration not stated), the TGI in [3] was determined as 50.7 µM; in assay [4] it was 11.9 µM; in assay [9] it was 65.4 µM; in [5], 71.8 µM; in [6], 92.9 µM; in assay [7], 78.5 µM. The TGI in assay [10] was above 100 µM.
Turning to `O=C(NCCCNCCNC(=O)c1cc(-c2ccccc2)nc2ccccc12)c1cc(-c2ccccc2)nc2ccccc12`, the TGI stood at 3.09 µM in assay [2]; 4.45 µM in [4]; 4.08 µM in assay [9]; 3.13 µM in [5]; 3.89 µM in assay [6]; 3.06 µM in assay [7]. Further, the TGI in assay [10] stood at 3.95 µM; in assay [8], 5.45 µM.
Regarding `Nc1cc(N2CCCC2)nc(=O)n1Cc1ccccc1`, the TGI in [1], in assay [2], in [3], in assay [4], in assay [9] and in assay [5] was above 100 µM each time. In addition, the TGI in assay [7], in assay [10] and in assay [8] was above 100 µM each time.
With `CC1(Cl)CC2C(CC1Sc1nnnn1-c1ccccc1)C2(C)C` (configuration not stated), the TGI in assay [1], in assay [2], in [3], in assay [4], in assay [9] and in assay [5] was above 100 µM throughout. Further, the TGI in [6], in assay [7] and in assay [10] was above 100 µM each time.
As to `O=c1[nH]nc(Cc2ccccc2)n1-n1cnnc1`, the TGI in assay [1], in assay [2], in assay [3], in [4], in assay [9] and in [5] was above 100 µM in each case. Also, the TGI in assay [6], in assay [7] and in assay [10] was above 100 µM throughout.
`CC(C)N(C)C(=O)C12C3C4C1C1C2C3C41C#N` (configuration not stated): the TGI in assay [1], in [2], in assay [4], in assay [9], in assay [5] and in assay [6] was above 100 µM in each case. Also, the TGI in [7], in [10] and in [8] was above 100 µM in each case.
As to `CCc1c(C)c(C#N)c(=S)n(C2OC(CO)C(O)C(O)C2O)c1C` (configuration not stated), the TGI in assay [1], in assay [2], in [4], in assay [9], in [5] and in assay [6] was above 100 µM in each case. The TGI in assay [7] and in assay [10] was above 100 µM each time.
On to `Cn1c2ccccc2c2c3c(c4c5ccccc5n(C)c4c21)C(=O)c1ccccc1C3=O`, for which the TGI in assay [2], in assay [3], in [9], in [5], in assay [6] and in assay [7] was above 100 µM each time. Further, the TGI in assay [10] and in [8] was above 100 µM in each case.
As to `CCO/C(O)=C(/C(=N)N1CCCC1)C(=O)Nc1cccc(C(F)(F)F)c1`, the TGI in assay [1], in assay [2], in assay [3], in assay [4], in [9] and in assay [5] was above 100 µM in each case. Besides, the TGI in [7], in assay [10] and in [8] was above 100 µM each time.
For `Cn1cnc2c(sc3nc4ccccc4n32)c1=N`, the TGI in assay [1], in assay [2], in assay [3], in [9], in [5] and in assay [6] was above 100 µM throughout. In addition, the TGI in [7], in [10] and in assay [8] was above 100 µM each time.
In the case of `O=C(CNc1ccc(Cl)cc1Cl)NC1C=Cc2ccc(S(=O)(=O)Nc3ccc(Cl)cc3Cl)cc2C1=O` (configuration not stated), the TGI in assay [1], in assay [2], in assay [3], in assay [4], in [5] and in assay [6] was above 100 µM in each case. In addition, the TGI in assay [7], in assay [10] and in assay [8] was above 100 µM throughout.
Regarding `CC(=O)c1cc2ccccc2n(O)c1=N`, the TGI in assay [1], in assay [9], in [5], in assay [7], in assay [10] and in assay [8] was above 100 µM each time.
Turning to `CC(C)OP(=O)(OC(C)C)C(C(C)C)N(C)/C(F)=N/C(F)(F)F` (configuration not stated), the TGI in [1], in [2], in assay [4], in [5], in [6] and in [7] was above 100 µM throughout. Moreover, the TGI in assay [10] and in assay [8] was above 100 µM throughout.
Turning to `O=c1[nH]c2cc3[nH]c4ncccc4c(=O)c3cc2[nH]1`, the TGI in assay [1], in assay [2], in [3], in assay [9], in assay [5] and in [7] was above 10 µM in each case. In addition, the TGI in assay [10] and in assay [8] was above 10 µM throughout.
